Laboratory results: patent publication US20030083374A1, “NAALADase inhibitors useful as pharmaceutical compounds and compositions” (priority 1998, published 2003)

Key:
BB/W diabetic rats [1] = assay: progression of neuropathic pain in BB/W diabetic rats, thermal nociception; format: in vivo, Male BB/W rats; settings: 10 mg/kg i.p. daily; starting after 4 weeks, through six months
Excerpt: (§1) Male BB/W rats (BR1, Mass) spontaneously develop a cell mediated autoimmune destruction of pancreatic B cells, resulting in onset of insulin-dependent (Type I) diabetes (Guberski 1994). […] This renders them valuable for experimental trials of new compounds for future treatments of this major disorder. In the present study, Compound 1 and Compound 2 were examined for their ability to alter the progression of diabetic neuropathy. The rats received daily injection of Compound 1 or Compound 2 (10 mg/kg i.p.) or vehicle, starting at the onset of diabetes (hyperglycemia) and up to 6 months thereafter. Another group of non-diabetic rats also receiving vehicle were tested. All animals were continuously monitored for body weight, urine volume, blood sugar and glycated haemoglobin. In the first month of the study, all animals were tested for thermal nociception in a Hargreaves apparatus, weekly. After the first month this was done biweekly and then monthly. The testing consists of directing an infrared heat source onto the […] surface of the rat hindpaw and noting the time taken for the animal to remove its paw (for detailed method see Hargreaves et al. 1998). Each animal was tested 8 times and the mean withdrawal latency noted.

cortical cell cultures = assay: in vitro assay of NAALADase inhibitors on ischemia in cortical cell cultures; format: cell-based; settings: concentration required to cause a 50% reduction in glutamate toxicity following an ischemic insult (potassium cyanide and 2-deoxyglucose)
Excerpt: Some results are set forth in U.S. Pat. Nos. 5,672,592, 5,795,877, 5,863,536, 5,880,112 and 5,902,817, allowed U.S. patent application Ser. Nos. 08/825,997, 08/833,628, 08/842,360 and 08/899,319 for which the issue fees have been paid, the entire contents of which patents and applications are herein incorporated by reference. Other results are provided below in TABLE III.

STZ-diabetic animals = assay: motor and sensory nerve conduction velocity in STZ-diabetic animals; format: in vivo, rats; settings: either dose (10 mg/kg or 1 mg/kg); significant after 12 weeks at 10 mg/kg, earlier at 1 mg/kg
Method: (§2) Male Sprague-Dawley rats (200-225 g) were rendered diabetic by intravenous administration of streptozotocin (STZ, 70 mg/kg in phosphate buffered saline). Diabetic animals were divided into five groups: one group receiving Compound 2 (10 mg/kg or 1 mg/kg), Compound 1 (10 mg/kg or 1 mg/kg) or vehicle. Another group of animals (non-STZ treated) served as non-diabetic controls. Drug/vehicle treatment was started in diabetic animals 45 days post-STZ administration. STZ-induced diabetic rats were tested for sensitivity to a heat source as soon as blood glucose levels rose to 320 mg/dl or above (30 days post STZ). The rats were then acclimated to the Hargreaves apparatus and thermal nociception was monitored using an infrared heat source directed into the […] surface of the hindpaw, and the time taken for the animal to remove its paw noted to the nearest 0.1 seconds (see Hargreaves et al. 1998 for detailed method). The intensity of the beam source was adjusted such that the mean latency for control animals (non-STZ treated) was approximately 10 seconds. Each animal was tested 8 times and the mean difference score (between mean non-diabetic control latency and mean diabetic latency) are graphically presented in FIGS. 19A and 19B.
Motor and sensory nerve conduction velocity was also measured in STZ-diabetic animals after 4, 8 and 12 weeks of treatment (see De Koning and Gispen 1987 for detailed method). Briefly, stimulating needle electrodes were inserted close to the sciatic and tibial nerves with recording electrodes being placed subcutaneously over the distal foot muscles, in anesthetized rats.

[2] = test system: acetic acid (0.6%) induced writhing; assay: acetic acid model of pain (writhing); format: in vivo, mice; settings: pretreated
Excerpt: One source of neuronal glutamate is thought to derive from the abundant neuropeptide NAAG which is hydrolyzed by NAALADase to liberate free glutamate. The inventors hypothesized that inhibition of NAALADase could limit pain by preventing this source of glutamate. To test this hypothesis, the inventors examined the possible antinocipetive effects of several NAALADase inhibitors in the formalin-, acetic acid- and chronic constrictive injury (CCI; “Bennett model”) models of pain. […] On day 7, 5% formalin was injected into the dorsum of the rat's hindpaw.

BB/W diabetic rats [3] = assay: nerve conduction velocity in BB/W diabetic rats; format: in vivo, Male BB/W rats; settings: 10 mg/kg daily; starting at 8 weeks, through six months
Excerpt: as §1, with “Each animal was tested 8 times and the mean withdrawal latency noted.” left out
Nerve conduction velocity was also measured every two weeks through the first eight weeks of treatment and every month thereafter through to the six months of treatment (see De Koning et al. 1987 for method details). […]

PCP-treated rats = assay: in vivo assay on schizophrenia (PCP model); settings: 50 mg/kg i.p. before PCP (5 mg/kg)
Method: Rats treated with PCP develop symptoms, such as frantic running and incessant head-turning, that parallel psychotic symptoms in humans. Thus, to examine the effects of NAALADase inhibition on schizophrenia, rats were treated intraperitoneally with Compound 1 (50 mg/kg), Compound 2 (50 mg/kg) or a vehicle (H2O) before they received PCP (5 mg/kg). Head rolling scores were measured for over 2 hours following PCP injection.

[4] = test system: STZ-induced diabetic rats; assay: in vivo assay on neuropathic pain in STZ-diabetic rats (Hargreaves); set-up: species or system Male Sprague-Dawley rats; settings: 10 mg/kg i.p. daily, started 45 days post-STZ
Method: as §2

O=C(O)CCC(CCS)C(=O)O (stereo not shown) [Compound 1, 2-(2-sulfanylethyl)pentanedioic acid]
withdrawal latencies vs. diabetic vehicle-treated rats (BB/W diabetic rats [1]): longer withdrawal latencies | EC50 (cortical cell cultures): 2 nM | motor and sensory nerve conduction velocities vs. diabetic controls (STZ-diabetic animals): increased | acetic acid (0.6%) induced writhing vs. vehicle control [2]: significantly attenuated | nerve conduction deficits vs. diabetic controls receiving vehicle (BB/W diabetic rats [3]): significantly less severe nerve conduction deficits | locomotor-activating effects of PCP (head rolling scores) (PCP-treated rats): significantly reduced | hyperalgesic response in diabetic rats [4]: completely reversed
